Results taken from paper PMC12589998, “Development and validation of a UHPLC-QqQ-MS/MS method for simultaneous determination of fifteen major components from Oroxyli seed extract in rat plasma and its application in the pharmacokinetic study” (Frontiers in Pharmacology, 2025).
“Also recorded” adds a separate entry of the source. Where two headings read alike, the source gives them in different places. One block for each compound: values may come before it.

Assays:
[1] = Pharmacokinetic study in rats after oral administration of OS extract (UHPLC-QqQ-MS/MS of plasma); assay type: in vivo, rat
Description: The UHPLC-QqQ-MS/MS system consisted of a 1290 UHPLC and a 6470 mass spectrometer (Agilent Technologies). Chromatographic separation was realized on utilizing an ACQUITY UPLC BEH C18 column (2.1 × 100 mm, 1.7 μm) maintained at 35 °C. The mobile phase consisting of 0.1% formic acid in water (A) and acetonitrile (B) was utilized with the elution program set at 0 min–1 min, 5% B–30% B; 1 min–4 min, 30% B– 50% B; 4 min–8 min, and 50% B–90% B. The injection volume was 5 μL, and the flow rate was 0.3 mL/min. The mass spectrometry parameters in the negative ion mode, gas temperature, flow rate, and nebulizer pressure were 300 °C, 7 L/min, and 35 psi, respectively. The mass spectra properties of the 15 analytes and the IS are illustrated in Table 1.
To 100 μL of the plasma sample, 20 μL of methanol, 20 μL of IS solution (methylparaben, 1 μg/mL), and 5 μL of formic acid were added and vortexed for a duration of 2 min. Subsequently, the mixture underwent extraction with 800 μL of acetonitrile for 3 min. Following 10 min of centrifugation at 12,000 g, the supernatant was collected and evaporated to dryness under N2 to obtain the residue. Finally, the residue was reconstituted in 50% methanol (100 μL) and utilized for analysis.
Before initiating the study, six male SD rats underwent a 12-h fasting period, during which they were granted unrestricted access to water. Then, the rats were administered an oral dose of 3 g/kg of the OS extract, which had been dissolved in 0.5% CMC-Na aqueous solution. Blood samples, approximately 200 μL each, were collected at various time points: before administration and at 0.03, 0.08, 0.17, 0.25, 0.5, 0.75, 1, 2, 4, 6, 8, 10, 12, 24, 36, and 48 h post-administration. Following 10 min of centrifugation at 6,000 g, the resultant samples were stored at −80 °C.
The developed method was effectively applied to study the pharmacokinetics in rats following oral administration of the OS extract. […] This was likely due to their low concentrations in the OS extract. Ultimately, nine components (chrysin, chrysin-7-O-β-D-glucuronide, baicalin, baicalein, oroxin A, oroxin B, oroxylin A, oroxylin A-7-O-β-D-glucuronide, and scutellarein) were successfully fitted with pharmacokinetic parameters. The average plasma concentration–time profiles of these substances are depicted in Figure 3. […] All data were presented as the mean ± standard deviation (Mean ± SD).

[2] = Stability of the analytes in rat plasma samples under storage conditions; assay type: physicochemical; conditions: n = 6
Description: The bioanalytical method validation was evaluated for specificity, linearity, sensitivity, precision and accuracy, recovery, matrix effect, and stability to ensure compliance with the U.S. Food and Drug Administration (FDA) guidance on precise quantitative analysis ([Center for Drug Evaluation and Research of the U.S., 2018]). The assessment of specificity was conducted by comparing the chromatograms obtained from blank plasma, blank plasma spiked with the target components, and samples gathered following the oral administration of OS extract. Calibration curves were constructed by plotting the ratio for the peak area of the analyte to IS versus the concentration, with 1/x^2 serving as the weighting factor. The lower limit of quantification (LLOQ) was defined as the concentration at which a signal to noise ratio of […] 10 was achievable. The evaluation of precision and accuracy involved the analysis of six QC samples, both within a single day and over 3 consecutive days. Accuracy was expressed as the relative error (RE), whereas precision was gauged via relative standard deviation (RSD). Extraction recovery was ascertained by juxtaposing the responses of analytes in extracted samples against those in samples that were spiked post-extraction. The matrix effect was scrutinized by determining the ratio of the responses of the analytes in post-extraction spiked samples to those in the mixed standard solution. The stability of the analytes in plasma samples was explored under diverse conditions: encompassing a 12-h period in an autosampler, a 4-h interval at room temperature, three cycles of freezing–thawing, and a 7-day duration at −80 °C.
The retention times of the analyte peaks were consistent with those in the spiked samples. […] The LLOQs for chrysin, chrysin-7-O-β-D-glucuronide, hispidulin, wogonoside, quercetin, quercetin-7-O-β-D-glucoside, baicalin, baicalein, acacetin, oroxin A, oroxin B, oroxylin A, oroxylin A-7-O-β-D-glucuronide, apigenin, and scutellarein were 1.0, 2.0, 1.0, 0.3, 1.0, 0.1, 9.0, 6.0, 0.3, 6.0, 4.0, 1.0, 2.0, 0.5, and 0.3 ng/mL, respectively. In Supplementary Table S2, the RE for accuracy is between −13.77% and 12.55%, and the RSD for precision is below 14.55% (both intra- and inter-day). […] The matrix effect varied from 60.15% to 115.53%, with RSD values below 10.54%. In Supplementary Table S4, the RSD values for stability of the analytes are found to be lower than 13.98%, meaning that these components were stable under the following conditions: encompassing a 12-h period in an autosampler, a 4-h interval at room temperature, three cycles of freezing and thawing, and a 7-day duration at −80 °C.

[3] = male, SD, 3 g/kg, rat plasma collected 0.5 h after oral administration of the OS extract, read-out: Concentration printed in MRM chromatogram of plasma sample (Figure 2C)
[4] = male, rat plasma, oral 3 g/kg OS extract, n = 6, mean ± SD, read-out: AUC(0-t)
[5] = male, rat plasma, oral 3 g/kg OS extract, n = 6, mean ± SD, read-out: AUC(0-∞)
[6] = male, rat plasma, oral 3 g/kg OS extract, n = 6, mean ± SD, read-out: Cmax
[7] = male, rat plasma, oral 3 g/kg OS extract, n = 6, mean ± SD, read-out: T1/2 (converted)
[8] = male, rat plasma, oral 3 g/kg OS extract, n = 6, mean ± SD, read-out: Tmax
[9] = spiked concentration 2000 ng/mL
[10] = spiked concentration 32000 ng/mL
[11] = male, SD, rat, in vivo, po, 3 g/kg
[12] = spiked concentration 1600 ng/mL
[13] = spiked concentration 6400 ng/mL

SMILES: O=C(O)[C@H]1O[C@@H](Oc2cc3oc(-c4ccccc4)cc(=O)c3c(O)c2O)[C@H](O)[C@@H](O)[C@@H]1O [Baicalin, baicalin]
concentration at 0.5 h [1, 3]: 10400 ng/mL | AUC(0-t) [1, 4]: 257000 ng·h/mL | AUC(0-inf) [1, 5]: 264000 ng·h/mL | Cmax [1, 6]: 13400 ng/mL | half-life [1, 7]: 548 ± 69 min | Tmax [1, 8]: 0.67 ± 0.13 h | Shape of plasma concentration-time curve ([1]; rat plasma after oral OS extract): significant bimodal phenomena; also recorded: clear bimodal phenomena | AUC(0-t) ([1]; rat plasma, oral 3 g/kg OS extract, n = 6, mean ± SD): significantly higher than that of the others | Measured, -80°C for 7 days ([2]; spiked concentration 200 ng/mL): 196.55 ± 6.22 ng/mL | Measured, Autosampler for 12 h ([2]; spiked concentration 200 ng/mL): 197.37 ± 12.83 ng/mL | Measured, Room temperature for 4 h ([2]; spiked concentration 200 ng/mL): 197.18 ± 11.27 ng/mL | Measured, Three freeze-thaw cycles ([2]; spiked concentration 200 ng/mL): 191.59 ± 7.20 ng/mL | Measured, -80°C for 7 days [2, 9]: 2100.51 ± 51.69 ng/mL | Measured, Autosampler for 12 h [2, 9]: 1919.30 ± 46.13 ng/mL | Measured, Room temperature for 4 h [2, 9]: 2105.21 ± 73.11 ng/mL | Measured, Three freeze-thaw cycles [2, 9]: 1965.30 ± 64.97 ng/mL | Measured, -80°C for 7 days [2, 10]: 34521.83 ± 3366.83 ng/mL | Measured, Autosampler for 12 h [2, 10]: 31375.83 ± 425.60 ng/mL | Measured, Room temperature for 4 h [2, 10]: 30814.68 ± 1603.40 ng/mL | Measured, Three freeze-thaw cycles [2, 10]: 32953.20 ± 2649.23 ng/mL

concentration at 0.5 h ([1]; male, SD, rat, in vivo, po): 73 ng/mL | AUC(0-inf) [1, 11]: 589 ± 303 ng·h/mL | AUC(0-t) [1, 11]: 550 ± 294 ng·h/mL | Cmax [1, 11]: 519 ± 197 ng/mL | Tmax [1, 11]: 0.06 ± 0.03 h | half-life [1, 11]: 255 ± 121 min | Measured, -80°C for 7 days ([2]; spiked concentration 10 ng/mL): 9.25 ± 0.47 ng/mL | Measured, Autosampler for 12 h ([2]; spiked concentration 10 ng/mL): 11.26 ± 1.24 ng/mL | Measured, Room temperature for 4 h ([2]; spiked concentration 10 ng/mL): 10.87 ± 0.54 ng/mL | Measured, Three freeze-thaw cycles ([2]; spiked concentration 10 ng/mL): 9.15 ± 0.40 ng/mL | Measured, -80°C for 7 days ([2]; spiked concentration 100 ng/mL): 91.73 ± 5.32 ng/mL | Measured, Autosampler for 12 h ([2]; spiked concentration 100 ng/mL): 101.85 ± 8.18 ng/mL | Measured, Room temperature for 4 h ([2]; spiked concentration 100 ng/mL): 99.57 ± 5.36 ng/mL | Measured, Three freeze-thaw cycles ([2]; spiked concentration 100 ng/mL): 90.99 ± 3.81 ng/mL | Measured, -80°C for 7 days [2, 12]: 1539.20 ± 116.03 ng/mL | Measured, Autosampler for 12 h [2, 12]: 1687.80 ± 77.00 ng/mL | Measured, Room temperature for 4 h [2, 12]: 1601.59 ± 94.45 ng/mL | Measured, Three freeze-thaw cycles [2, 12]: 1525.21 ± 82.94 ng/mL
SMILES: O=c1cc(-c2ccccc2)oc2cc(O)cc(O)c12 [Chrysin, chrysin]

concentration at 0.5 h [1, 3]: 879 ng/mL | AUC(0-t) [1, 4]: 43500 ng·h/mL | AUC(0-inf) [1, 5]: 44900 ng·h/mL | Cmax [1, 6]: 3320 ng/mL | half-life [1, 7]: 287 ± 137 min | Tmax [1, 8]: 10 ± 2 h | Measured, -80°C for 7 days ([2]; spiked concentration 40 ng/mL): 37.32 ± 1.14 ng/mL | Measured, Autosampler for 12 h ([2]; spiked concentration 40 ng/mL): 39.57 ± 2.48 ng/mL | Measured, Room temperature for 4 h ([2]; spiked concentration 40 ng/mL): 39.19 ± 3.16 ng/mL | Measured, Three freeze-thaw cycles ([2]; spiked concentration 40 ng/mL): 43.49 ± 1.13 ng/mL | Measured, -80°C for 7 days ([2]; spiked concentration 400 ng/mL): 409.88 ± 38.24 ng/mL | Measured, Autosampler for 12 h ([2]; spiked concentration 400 ng/mL): 419.16 ± 29.59 ng/mL | Measured, Room temperature for 4 h ([2]; spiked concentration 400 ng/mL): 419.25 ± 24.55 ng/mL | Measured, Three freeze-thaw cycles ([2]; spiked concentration 400 ng/mL): 402.45 ± 17.08 ng/mL | Measured, -80°C for 7 days [2, 13]: 6210.06 ± 535.52 ng/mL | Measured, Autosampler for 12 h [2, 13]: 5954.05 ± 243.71 ng/mL | Measured, Room temperature for 4 h [2, 13]: 6145.55 ± 285.25 ng/mL | Measured, Three freeze-thaw cycles [2, 13]: 6316.77 ± 188.36 ng/mL
SMILES: O=C(O)[C@H]1O[C@@H](Oc2cc(O)c3c(=O)cc(-c4ccccc4)oc3c2)[C@H](O)[C@@H](O)[C@@H]1O [Chrysin-7-O-β-D-glucuronide, chrysin-7-O-β-D-glucuronide]

Tmax [1, 8]: ~10 h
SMILES: OCc1ccccc1O[C@@H]1O[C@H](CO)[C@@H](O)[C@H](O)[C@H]1O [salicin]
